{"source": "paper PMC3517478", "about": "(BMC Neurology, 2012)", "key": {"[1]": {"target": "T1, human α1-GlyR (WT) expressed in HEK 293 cells (Homo sapiens, UniProt P23415)", "T1 sequence (P23415 29-457)": "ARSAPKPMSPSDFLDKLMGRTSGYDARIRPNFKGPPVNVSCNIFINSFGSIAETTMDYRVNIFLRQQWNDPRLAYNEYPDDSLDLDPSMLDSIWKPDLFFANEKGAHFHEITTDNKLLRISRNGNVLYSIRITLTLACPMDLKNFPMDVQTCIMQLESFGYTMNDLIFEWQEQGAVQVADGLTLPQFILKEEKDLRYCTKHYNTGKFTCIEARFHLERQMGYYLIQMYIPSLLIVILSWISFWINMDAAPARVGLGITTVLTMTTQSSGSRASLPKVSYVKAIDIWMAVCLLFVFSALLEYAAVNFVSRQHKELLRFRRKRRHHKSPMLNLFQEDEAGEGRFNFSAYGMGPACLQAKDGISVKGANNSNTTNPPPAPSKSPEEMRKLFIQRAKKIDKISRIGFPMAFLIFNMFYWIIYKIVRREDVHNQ", "text": "(§1) Human α1-, α1R271Q-, α1R271L-, α1R271K and α1S267I-GlyR subunits were transiently transfected into human embryonic kidney cells (HEK 293, ATCC, Manassas, USA). The wild type α1-GlyR -cDNA was cloned in pCIS2 (Invitrogen, San Diego, USA) vector and provided by Prof. Heinrich Betz (Max-Planck-Institut für Hirnforschung, Frankfurt am Main, Germany). For the plasmid cDNA of the mutated α1R271Q-, α1R271L-, α1R271K- and α1S267I-GlyR the eukaryotic expression vector pcDNA1amp (Invitrogen, San Diego, USA), under the control of cytomegalovirus promoter, was used. For site-directed mutagenesis, single stranded template cDNA was synthesized from M13 origin of replication and the mutations of arginine residue (R) at position 271 to glutamine (R271Q), leucine (R271L) or lysine (R271K) and mutation of serine residue (S) at position 267 to isoleucine (S267I) were generated using standard procedures. […] Wild type and mutated α1-GlyR subunits efficiently form homomeric receptors in heterologous expression systems.\n(§2) HEK 293 cells were cultured in medium containing HAMS’F-12 (Biochrom, Berlin, Germany), supplemented with 10% fetal bovine serum (FBS, Biochrom, Berlin, Germany), 100 U ml^–1 penicillin and 100μgml^–1 streptomycin (Gibco BRL, Life Technologies, Karlsruhe, Germany) at 37°C in a 5% CO2/ 95% air incubator. For transfection cells were suspended in a buffer containing 50mM K2HPO4 (Fluka BioChemika, Seelze, Germany), 20mMK-acetate (Sigma-Aldrich, Taufkirchen, Germany) and 25mM MgSO4 (Sigma-Aldrich, Taufkirchen, Germany) at pH 7.35. To visualize transfected cells, they were co-transfected with cDNA encoding for enhanced green fluorescent protein (EGFP) contained in the pEGFP-N1 expression vector (Clontech, Palo Alto, USA). The corresponding cDNA (5μg for the GlyR and 2.5μg for EGFP) was added to 400μl of the cell suspension and the mixture was rapidly transferred into the electroporation cuvette. For transfection we used an electroporation device by EquiBio (Kent, UK) and a 4mm aluminum electrode electroporation cuvette (Peqlab, Erlangen, Germany).\n(§3) The phenol derivative 4-chloropropofol ([…]) was provided as pure substance by Prof. Paul M. O’Neill (University of Liverpool, England), prepared as light-protected 1M stock solution in ethanol (EtOH, J.T.Baker, Griesheim, Germany) and stored in glass vessels at −20°C.\n(§4) Drug-containing vials were vigorously vortexed for 30min. Patch electrodes were filled with an intracellular solution of [mM] KCl 140, MgCl2 2, EGTA 11, HEPES 10, glucose 11, CaCl2 1 with pH 7.3, adjusted with 1 M KOH and a bath solution contained [mM] NaCl 162, KCl 5.31, NaHPO4 0.85, KH2PO4 0.22, HEPES 15, glucose 6.11, pH 7.4 adjusted with 1 M NaOH. Osmolarity of both solutions was set at 280–300 mOsmol.\n(§5) Whole-cell experiments were performed at a holding potential of −30 mV with a mean seal resistance of 1 GΩ. […] A fast liquid filament switch technique was used for the application of the agonist, presented in pulses of 2 s duration every 20 s. The liquid filament switch technique is able to exchange the solution passing an outside-out patch or small whole-cells within 1–2 ms. We calculated flow rate of background solution through the chamber with 3,4 ml/min corresponding to 4% of maximal pump rate. With regard to the chamber volume of 100 μl the exchange solution time within the chamber was assessed to approximately […], dependent on cell size accordingly. Piezo-switch and small diameter capillary (ID 0.15 mm) within the measurement chamber promoted the millisecond solution exchange. […] The induced current (I) by this saturating control solution was defined as Icontrol. […] The stability of the seal was controlled during the complete experiment via control of the seal resistance. A variation of 10-20% of the basic value was regarded as tolerable."}, "[2]": {"target": "T2, human α1R271K-GlyR expressed in HEK 293 cells (Homo sapiens, UniProt P23415, R299K)", "T2 sequence (P23415 29-457 R299K)": "T1 sequence (P23415 29-457) with R271K", "conditions": "R271K", "text": "as §1, §2, §3, §4, §5"}, "[3]": {"conditions": "10-90% of Imax, monoexponential fit"}}, "note": "Numbering of substitutions follows the chain as printed. Values joined by “and” are separate entries in the source; they are usually repeats but may differ in a detail not shown here. Identical values can stand only once.", "data": [{"smiles": "NCC(=O)O", "note": "[glycine]", "values": [{"measurement": "Current amplitude [% of mean WT current amplitude] ± SEM", "setting": "[1]", "value": "100.0±26", "unit": "%"}, {"measurement": "nH ± SEM (Hill coefficient), glycine activation", "setting": "[1]", "value": "0.8 and 0.8±0.7"}, {"measurement": "Rise time ± SEM", "setting": "[1]; [3]", "value": "3.7 ms and 3.7 ± 0.8 ms"}, {"measurement": "Mean current amplitude ± SEM", "setting": "[1]; saturating glycine 1 mM", "value": "1645±426", "unit": "pA"}, {"measurement": "Current amplitude [% of mean WT current amplitude] ± SEM", "setting": "[2]", "value": "32.0±18", "unit": "%"}, {"measurement": "nH ± SEM (Hill coefficient), glycine activation", "setting": "[2]", "value": "1.0±0.5"}, {"measurement": "Rise time ± SEM", "setting": "[2]; [3]", "value": "14.9 ± 7.7", "unit": "ms"}, {"measurement": "Mean current amplitude ± SEM", "setting": "[2]; saturating glycine 10 mM", "value": "526±97", "unit": "pA"}]}]}
